Assay results: patent publication US9725457B2, “6-amido derivatives of 4, 5-a epoxymorphinans for the treatment of pain” (Sloan-Kettering Institute for Cancer Research, priority 2010, dated 2017)
pKi: −log10 of the molar value.

Legend:
[1] = biological target: T1, DOR (delta opioid receptor), DOR1-CHO (Mus musculus, UniProt P32300); test: Competition binding in DOR-CHO, 125I-SMGP1 radioligand
T1 construct: expressed in transfected cells; host or cells: CHO
Procedure: Receptor-Binding Assays: Competition-binding assays in MOR-CHO (mu), DOR-CHO (delta) and KOR-CHO (kappa) were performed at 25° C. in 50 mM potassium phosphate buffer, pH 7.4, containing 5 mM magnesium sulfate (only in the case of CHO-MOR). Specific binding was defined as the difference between total binding and nonspecific binding, determined in the presence of 8 μM levallorphan. […] Protein concentrations were generally 20-40 μg/mL, incubation times were 90 minutes for all assays. […] Specific binding was defined as the difference between total binding and nonspecific binding, determined in the presence of 8 μM levallorphan. […] Kd, Bmax, and Ki values were calculated by nonlinear regression analysis (GraphPadPrism).

mice [2] = test: Respiratory depression assessment (MouseOx pulse oximeter); details: 2.5 mg/kg subcutaneously (five times the ED50), CD1 mice
Procedure: Respiratory Depression assessment: The MouseOx Pulse Oximeter system (Starr Life Sciences, Pittsburgh, Pa.) was used to assess respiratory rate in awake, freely-moving, adult male CD1 mice. For 30 minutes, each animal was habituated to the device using a blank collar, after which the oximeter collar was placed on the animal. A five-second average breath rate was assessed at 5 minute intervals. A baseline for each animal was obtained over a 25 minute period prior to drug injection; beginning 15 minutes post-injection, measurements were then taken for a period of 35 minutes.

kappa3 opioid receptor = kappa3 opioid receptor (Mus musculus, UniProt P42866); test: Kappa3 opioid receptor competition binding in whole brain membrane homogenates
Procedure: (§1) Receptor-Binding Assays: Competition-binding assays in MOR-CHO (mu), DOR-CHO (delta) and KOR-CHO (kappa) were performed at 25° C. in 50 mM potassium phosphate buffer, pH 7.4, containing 5 mM magnesium sulfate (only in the case of CHO-MOR). Specific binding was defined as the difference between total binding and nonspecific binding, determined in the presence of 8 μM levallorphan. 125I-SMGP1 (IBNtxA) was used as the universal radioligand to determine the relative affinity of drugs in MOR1-CHO, KOR1-CHO and DOR1-CHO. Protein concentrations were generally 20-40 μg/mL, incubation times were 90 minutes for all assays. (Majumdar et al., Bioorg Med Chem Lett. 2011, 21(13), 4001-4004). Kappa3 opioid receptor competition binding assays were carried out in whole brain membrane homogenates, performed at 25° C. in 50 mM potassium phosphate buffer, pH 7.4, containing 5 mM magnesium sulfate for 90 minutes in presence of 100 nM CTAP, 100 nM U50488h and 100 nM DPDPE. ^125I-SMGP1 was used as the radioligand in the assays, typically 500 micrograms of protein and 0.15 nM of the radioligand was used in a 0.5 mL assay. Specific binding was defined as the difference between total binding and nonspecific binding, determined in the presence of 8 μM levallorphan. Protein concentration was determined as described by Lowry et al. [J Biol Chem 1951, 193, 265-275; (1951)] using bovine serum albumin as the standard. Kd, Bmax, and Ki values were calculated by nonlinear regression analysis (GraphPadPrism). […] The “kappa3 opioid receptor” as referred to herein is the receptor first characterized by Clark et al. [J. Pharmacol. Exp. Ther. 251, 461-468 (1989)].

mice [3] = test: Radiant heat tail flick analgesia assay; assay type: in vivo
Procedure: Tail Flick Analgesia Assays: Male CD-i mice (25-35 g; Charles River Breeding Laboratories, Wilmington, Mass.) were maintained on a 12-hr light/dark cycle with Purina rodent chow and water available ad libitum. Mice were housed in groups of five until testing. Analgesia was determined using the radiant heat tail-flick technique [D'Amour and Smith, J. Pharmacol. Exp. Ther. 72: 74-79 (1941)]. For the tail-flick assay, the latency to withdraw the tail from a focused light stimulus was measured electronically using a photocell. […] Post-treatment tail-flick latencies were determined as indicated for each experiment, and a maximal latency of 10 sec for tail-flick was used to minimize tissue damage. All experiments were replicated at least twice with each group in each experiment containing at least 10 mice and the combined results of all replications presented.

mice [4] = test: Gastrointestinal motility (charcoal meal transit) assay; assay type: in vivo
Procedure: Gastrointestinal motility assay: Gastrointestinal transit was determined as described by Paul and Pasternak [Eur. J. Pharmacol. 149 (1988), pp. 403-404.)]. In brief, after withholding food for 8 hours, animals received the indicated drug and then were given a charcoal meal (0.2 mL; 10% of purified charcoal and 2.5% of gum tragacanth, w/v) by gavage and were sacrificed 30 min later. The distance traveled by the charcoal meal was then measured and reported in centimeters.

mice [5] = test: Tolerance studies and effects of chronic administration (cross tolerance, precipitated withdrawal)
Procedure: Tail-flick latencies were determined before and 30 minutes after each injection. See Gistrak et al. (1989) op. cit. […] Similarly, a group of mice (n=10) were made tolerant to test compound by twice daily injections to 1 mg/kg, s.c. for 10 days. […] Animals were evaluated for signs of diarrhea and jumping. See Gistrak et al. (1989) op. cit.

[6] = biological target: T2, KOR (kappa opioid receptor), KOR1-CHO (Mus musculus, UniProt P33534); test: Competition binding in KOR-CHO, 125I-SMGP1 radioligand
T2 construct: expressed in transfected cells; host or cells: CHO
Procedure: as §1

[7] = biological target: T3, MOR (mu opioid receptor), MOR1-CHO (Mus musculus, UniProt P42866); test: Competition binding in MOR-CHO, 125I-SMGP1 radioligand
T3 construct: expressed in transfected cells; host or cells: CHO
Procedure: as §1

Compound: O=C(NC1CCC2(O)C3Cc4ccc(O)c5c4C2(CCN3CC2CC2)C1O5)c1cccc(I)c1 (stereo not drawn) [SMGP 1]
- pKi [1]: 9.62
- respiratory depression as compared to saline (mice [2]): no statistically significant depression
- affinity for the kappa3 site in words (kappa3 opioid receptor): high affinity
- ED50 (mice [3]; Mus musculus, male CD-i mice, radiant heat tail-flick): 0.53 mg/kg
- analgesic potency in mice relative to morphine (mice [3]; mice): potency greater than morphine
- effect on the inhibition of gastrointestinal transit (mice [4]): minimal
- physical dependence (withdrawal on challenge with an antagonist after chronic administration) (mice [5]; chronic administration, challenge with antagonist): no physical dependence
- tolerance with chronic administration (mice [5]; chronic administration, mice): some tolerance
- analgesic response in highly morphine tolerant mice (mice [5]; highly morphine tolerant mice): normal analgesic response
- cross tolerance to morphine (mice [5]; mice): no cross tolerance to morphine
- pKi [6]: 10.52
- pKi [7]: 9.96
